Measured values published in PubChem BioAssay AID192 (DTP/NCI, 2004).
Values joined by “and” are separate entries in the source; they are usually repeats but may differ in a detail not shown here. Equal entries are not always repeated. Inconclusive results and toxic doses are left out.

System: BDF1 mice, B16 melanoma ip, median survival T/C
Experiment: NCI In Vivo Anticancer Drug Screen. Data for tumor model B16 Melanoma (intraperitoneal) in B6D2F1 (BDF1) mice
Conditions: endpoint: median survival time, higher = longer survival
Outline: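 Mice with transplantable tumors; drug vs vehicle groups; endpoint survival or tumor size; value = T/C.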

[1] = dose: 50.0 mg/kg/injection, schedule: Q01DX009 (ip), vehicle: saline with Tween-80
[2] = dose: 100.0 mg/kg/injection, schedule: Q01DX009 (ip), vehicle: saline with Tween-80
[3] = dose: 12.5 mg/kg/injection, schedule: Q01DX009 (ip), vehicle: saline with Tween-80
[4] = dose: 25.0 mg/kg/injection, schedule: Q01DX009 (ip), vehicle: saline with Tween-80
[5] = dose: 100.0 mg/kg/injection, schedule: Q01DX009 (ip), vehicle: Klucel (hydroxypropylcellulose) (HPC)
[6] = dose: 200.0 mg/kg/injection, schedule: Q01DX009 (ip), vehicle: Klucel (hydroxypropylcellulose) (HPC)
[7] = dose: 50.0 mg/kg/injection, schedule: Q01DX009 (ip), vehicle: Klucel (hydroxypropylcellulose) (HPC)

CCC(=O)N(C)[C@@H](C)C(=O)O[C@H]1CC(=O)N(C)c2cc(cc(OC)c2Cl)C/C(C)=C/C=C[C@@H](OC)[C@@]2(O)C[C@H](OC(=O)N2)[C@@H](C)[C@@H]2O[C@@]12C
T/C (dose: 2.5 micrograms/kg/injection, schedule: Q01DX009 (ip), vehicle: saline + alcohol): 156 % of control | T/C (dose: 3.8 micrograms/kg/injection, schedule: Q01DX009 (ip), vehicle: saline + alcohol): 171 % of control | T/C (dose: 5.0 micrograms/kg/injection, schedule: Q01DX009 (ip), vehicle: saline + alcohol): 167 % of control and 171 % of control | T/C (dose: 7.5 micrograms/kg/injection, schedule: Q01DX009 (ip), vehicle: saline + alcohol): 191 % of control | T/C (dose: 10.0 micrograms/kg/injection, schedule: Q01DX009 (ip), vehicle: saline + alcohol): 168 % of control and 181 % of control | T/C (dose: 15.0 micrograms/kg/injection, schedule: Q01DX009 (ip), vehicle: saline + alcohol): 151 % of control and 196 % of control | T/C (dose: 30.0 micrograms/kg/injection, schedule: Q01DX009 (ip), vehicle: saline + alcohol): 103 % of control

NC(=O)CC(NC(=O)CCl)C(=O)O (configuration not stated)
T/C [1]: 98 % of control | T/C [2]: 99 % of control

COC(=O)C(CCCCN=Cc1ccccc1O)N=Cc1ccccc1O.[Ni] (configuration not stated)
T/C (dose: 6.25 mg/kg/injection, schedule: Q01DX009 (ip), vehicle: saline with Tween-80): 100 % of control | T/C [3]: 90 % of control | T/C (dose: 12.5 mg/kg/injection, schedule: Q04DX003 (ip), vehicle: saline with Tween-80): 95 % of control | T/C [4]: 95 % of control | T/C (dose: 25.0 mg/kg/injection, schedule: Q04DX003 (ip), vehicle: saline with Tween-80): 93 % of control

CC(CC(O)c1ccccc1)c1ccccc1 (configuration not stated)
T/C [5]: 102 % of control | T/C [6]: 100 % of control | T/C (dose: 400.0 mg/kg/injection, schedule: Q01DX009 (ip), vehicle: Klucel (hydroxypropylcellulose) (HPC)): 92 % of control

CCC(=O)OCC(=O)[C@]1(O)Cc2c(O)c3c(c(O)c2[C@@H](OC2CC(N)C(O)C(C)O2)C1)C(=O)c1c(OC)cccc1C3=O (some centres not stated)
T/C (dose: 0.25 mg/kg/injection, schedule: Q01DX009 (ip), vehicle: saline): 188 % of control | T/C (dose: 0.5 mg/kg/injection, schedule: Q01DX009 (ip), vehicle: saline): 175 % of control | T/C (dose: 1.0 mg/kg/injection, schedule: Q01DX009 (ip), vehicle: saline): 169 % of control and 195 % of control | T/C (dose: 2.0 mg/kg/injection, schedule: Q01DX009 (ip), vehicle: saline): 177 % of control and 260 % of control

COc1c2occc2cc2ccc(=O)oc12
T/C (dose: 8.0 mg/kg/injection, schedule: Q01DX009 (ip), vehicle: saline with Tween-80): 104 % of control | T/C (dose: 16.0 mg/kg/injection, schedule: Q01DX009 (ip), vehicle: saline with Tween-80): 115 % of control | T/C [4]: 103 % of control | T/C (dose: 32.0 mg/kg/injection, schedule: Q01DX009 (ip), vehicle: saline with Tween-80): 95 % of control | T/C (dose: 64.0 mg/kg/injection, schedule: Q01DX009 (ip), vehicle: saline with Tween-80): 114 % of control | T/C [2]: 95 % of control | T/C (dose: 128.0 mg/kg/injection, schedule: Q01DX009 (ip), vehicle: saline with Tween-80): 93 % of control

CC[PH+](CC)CC[S-].CC[PH+](CC)CC[S-].[Au+].[Au+]
T/C (dose: 2.5 mg/kg/injection, schedule: Q01DX009 (ip), vehicle: Klucel (hydroxypropylcellulose) (HPC)): 109 % of control | T/C (dose: 5.0 mg/kg/injection, schedule: Q01DX009 (ip), vehicle: Klucel (hydroxypropylcellulose) (HPC)): 112 % of control | T/C (dose: 10.0 mg/kg/injection, schedule: Q01DX009 (ip), vehicle: Klucel (hydroxypropylcellulose) (HPC)): 118 % of control | T/C (dose: 20.0 mg/kg/injection, schedule: Q01DX009 (ip), vehicle: Klucel (hydroxypropylcellulose) (HPC)): 112 % of control | T/C (dose: 40.0 mg/kg/injection, schedule: Q01DX009 (ip), vehicle: Klucel (hydroxypropylcellulose) (HPC)): 110 % of control

COC(=O)c1ccc(C(=O)OC)cc1
T/C (dose: 0.05 mg/kg/injection, schedule: Q04DX003 (ip), vehicle: water): 103 % of control | T/C (dose: 0.1 mg/kg/injection, schedule: Q04DX003 (ip), vehicle: water): 96 % of control | T/C (dose: 0.2 mg/kg/injection, schedule: Q04DX003 (ip), vehicle: water): 106 % of control | T/C (dose: 0.4 mg/kg/injection, schedule: Q04DX003 (ip), vehicle: water): 113 % of control

CCOC(=O)C(Br)C(=O)OCC
T/C (dose: 0.58 mg/kg/injection, schedule: Q04DX003 (ip), vehicle: saline): 97 % of control | T/C (dose: 1.17 mg/kg/injection, schedule: Q04DX003 (ip), vehicle: saline): 100 % of control | T/C (dose: 2.34 mg/kg/injection, schedule: Q04DX003 (ip), vehicle: saline): 97 % of control | T/C (dose: 4.68 mg/kg/injection, schedule: Q04DX003 (ip), vehicle: saline): 93 % of control

C/C=C/c1cc2c(c(=O)o1)C(=O)[C@@H](O)[C@H](C)O2
T/C [3]: 95 % of control | T/C [4]: 90 % of control | T/C [1]: 95 % of control | T/C [2]: 110 % of control

COc1cccc2c1C(=O)c1c(O)c3c(c(O)c1C2=O)C[C@@](O)(C(=O)CO)C[C@@H]3OC1CC(N2CCOCC2C#N)C(O)C(C)O1 (some centres not stated)
T/C (dose: 37.5 micrograms/kg/injection, schedule: Q01DX001 (ip), vehicle: water): 161 % of control

CCCCOP(=O)(CCl)OCCCC
T/C [7]: 97 % of control | T/C [5]: 86 % of control

COc1cccc2c1C(=O)c1c(O)c3c(c(O)c1C2=O)C[C@@](O)(C(C)O)C[C@@H]3OC1CC(N2CCOCC2)C(O)C(C)O1 (some centres not stated)
T/C (dose: 62.5 micrograms/kg/injection, schedule: Q01DX001 (ip), vehicle: water): 100 % of control | T/C (dose: 125.0 micrograms/kg/injection, schedule: Q01DX001 (ip), vehicle: water): 104 % of control | T/C (dose: 250.0 micrograms/kg/injection, schedule: Q01DX001 (ip), vehicle: water): 112 % of control

Cc1ccn2ncnc2c1
T/C (dose: 50.0 mg/kg/injection, schedule: Q01DX009 (ip), vehicle: saline): 89 % of control | T/C (dose: 100.0 mg/kg/injection, schedule: Q01DX009 (ip), vehicle: saline): 86 % of control

COC1C(O)CC(OC2CC(OC3CC(O[C@@H]4C(=O)c5c(cc6cc(OC7CC(OC8CC(O)C(O)C(C)O8)C(O)C(C)O7)c(C)c(O)c6c5O)C[C@H]4[C@H](OC)C(=O)[C@@H](O)[C@@H](C)O)OC(C)C3O)OC(C)C2O)OC1C (some centres not stated)
T/C (dose: 188.0 micrograms/kg/injection, schedule: Q01DX009 (ip), vehicle: water): 106 % of control | T/C (dose: 375.0 micrograms/kg/injection, schedule: Q01DX009 (ip), vehicle: water): 105 % of control | T/C (dose: 750.0 micrograms/kg/injection, schedule: Q01DX009 (ip), vehicle: water): 121 % of control

ClCCOC1COC(OCCCl)CO1 (configuration not stated)
T/C (dose: 3.12 mg/kg/injection, schedule: Q01DX009 (ip), vehicle: Klucel (hydroxypropylcellulose) (HPC)): 103 % of control | T/C (dose: 6.25 mg/kg/injection, schedule: Q01DX009 (ip), vehicle: Klucel (hydroxypropylcellulose) (HPC)): 98 % of control | T/C (dose: 12.5 mg/kg/injection, schedule: Q01DX009 (ip), vehicle: Klucel (hydroxypropylcellulose) (HPC)): 93 % of control | T/C (dose: 25.0 mg/kg/injection, schedule: Q01DX009 (ip), vehicle: Klucel (hydroxypropylcellulose) (HPC)): 103 % of control | T/C [7]: 96 % of control | T/C [5]: 98 % of control | T/C [6]: 100 % of control

C=C(C)[C@]12CC(C)C34OC(/C=C\C=C\CCCCCCCCC)(O[C@@H]1[C@@H]3[C@@H]1O[C@]1(CO)[C@@H](O)[C@]1(O)C(=O)C(C)=C[C@@H]41)O2 (some centres not stated)
T/C (dose: 0.09 mg/kg/injection, schedule: Q01DX009 (ip), vehicle: alcohol): 88 % of control | T/C (dose: 0.18 mg/kg/injection, schedule: Q01DX009 (ip), vehicle: saline + alcohol): 98 % of control | T/C (dose: 0.19 mg/kg/injection, schedule: Q01DX009 (ip), vehicle: alcohol): 88 % of control | T/C (dose: 0.37 mg/kg/injection, schedule: Q01DX009 (ip), vehicle: saline + alcohol): 89 % of control

CC(NC1=NCCO1)c1cccc2ccccc12 (configuration not stated)
T/C (dose: 8.0 mg/kg/injection, schedule: Q04DX003 (ip), vehicle: saline with Tween-80): 102 % of control | T/C (dose: 12.0 mg/kg/injection, schedule: Q04DX003 (ip), vehicle: saline with Tween-80): 115 % of control | T/C [3]: 102 % of control | T/C (dose: 18.0 mg/kg/injection, schedule: Q04DX003 (ip), vehicle: saline with Tween-80): 102 % of control | T/C [4]: 106 % of control | T/C [1]: 93 % of control | T/C (dose: 50.0 mg/kg/injection, schedule: Q04DX003 (ip), vehicle: saline with Tween-80): 123 % of control

Cc1ccccc1NC(=S)N(C)C
T/C (dose: 6.25 mg/kg/injection, schedule: Q04DX003 (ip), vehicle: Klucel (hydroxypropylcellulose) (HPC)): 96 % of control | T/C (dose: 12.5 mg/kg/injection, schedule: Q04DX003 (ip), vehicle: Klucel (hydroxypropylcellulose) (HPC)): 100 % of control | T/C (dose: 25.0 mg/kg/injection, schedule: Q04DX003 (ip), vehicle: Klucel (hydroxypropylcellulose) (HPC)): 88 % of control and 100 % of control
